Experimental findings from patent EP0687685A1, “PHYSIOLOGICALLY ACTIVE PEPTIDE” (TEIJIN LIMITED, priority 1993, dated 1994) are described below.

As usually defined, the pIC50 is the negative decadic logarithm of the IC50, by convention in mol/L. The term inhibition denotes the share of the control response that was lost under treatment.

pIC50: −log10 of the molar value. Positions of bridges follow the written chain, without caps; N, C: chain ends. Residues, ends and D or L forms follow the SMILES beside them. *: point of attachment. Mob = COc1ccc(C*)cc1

For assay [1], the target named is T1, human type II PLA₂ (Homo sapiens, UniProt P14555).
T1 construct: made in house; host or cells: Sf9 insect cells, baculovirus (AcNPV), vector pAcTJI1; purified from culture supernatant
T1 sequence (P14555 21-144): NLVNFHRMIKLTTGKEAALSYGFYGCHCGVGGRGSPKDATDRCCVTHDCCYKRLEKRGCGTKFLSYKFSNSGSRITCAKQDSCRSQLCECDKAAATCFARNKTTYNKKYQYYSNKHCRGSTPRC
As to the kind of experiment: Inhibition of binding between heparin and human II-type PLA₂ (heparin-bound plate, biotinated PLA₂). The method, then: 500 µg of human type II (non-pancreatic) purified in Reference Example 1 was reacted with 2 ml of a solution of 5 mM sulfosuccinyl 6-(biotinamide hexose) in 0.1M NaHCO₃ at a room temperature for one hour, and the product was purified by a heparin Sepharose column to obtain biotinated human type II PLA₂.
50 µl of a phosphate buffered saline (PBS) containing 50 µg/ml poly-L-lysine was added to each well of a 96-well ELISA plate, and after incubation at room temperature for an hour, each well was twice washed with PBS, 50 µl of PBS solution containing 20 µg/ml heparin was added to each well, and a reaction was further carried out at a room temperature for an hour. Each well was twice washed with PBS, 200 µl of PBS solution containing 30 mg/ml bovine serum albumin (BSA) was added to each well, and after reaction at 37°C for an hour, the plate was stored at 4°C.
To each well of a peparin-bound plate prepared in Reference Example 3, 50 µl of a solution containing a peptide obtained in Examples 1 to 10 was added. After incubating at room temperature for 45 minutes, 50 µg/ml biotinated human II-type PLA₂ obtained in Example 2 was added thereon, and reaction was further carried out at room temperature for an hour. Each well was washed three times with PBS containing 0.05% Tween 20, 50 µl of a 3% BSA/PBS solution containing alkaline phosphatase-conjugated streptoavidin (Taga, ×2000 dilution) was added thereon, and a reaction was carried out at a room temperature for an hour. Each well was washed three times with PBS containing 0.05% Tween 20, 100 µl of a 1 mM p-nitrophenylphosphate/1M ethanolamine aqueous solution (pH 9.8) was added thereon, and a reaction was carried out at room temperature for an hour. Absorption of reaction mixture was measured at 405 nm using a microplate reader (Molecular Device Inc). A result is shown in Fig. 9, and IC₅₀ (µM) was also obtained.

The target in assay [2] is T1, human type II PLA₂. As to the kind of experiment: Enzyme inhibition of human type II PLA₂ in the presence of heparin, radiolabeled synthetic phospholipid (method of Dole). Format: biochemical.

As to `COc1ccc(CSC[C@H](NC(=O)CNC(=O)[C@H](CCCNC(=N)N)NC(=O)[C@@H](N)CCCCN)C(=O)NCC(=O)N[C@H](C(=O)N[C@@H](CCCCN)C(=O)N[C@@H](Cc2ccccc2)C(=O)N[C@@H](CC(C)C)C(=O)N[C@@H](CO)C(=O)N[C@@H](Cc2ccc(O)cc2)C(=O)N[C@@H](CCCCN)C(=O)N[C@@H](Cc2ccccc2)C(=O)N[C@@H](CO)C(=O)N[C@@H](CS)C(=O)O)[C@@H](C)O)cc1` [Peptide (1)] (H-KRGC(Mob)GTKFLSYKFSC-OH), the pIC50 in assay [1] is 5.85.
As to `COc1ccc(CSC[C@H](NC(=O)[C@H](CO)NC(=O)[C@H](Cc2ccccc2)NC(=O)[C@H](CCCCN)NC(=O)[C@H](Cc2ccc(O)cc2)NC(=O)[C@H](CO)NC(=O)[C@H](CC(C)C)NC(=O)[C@H](Cc2ccccc2)NC(=O)[C@H](CCCCN)NC(=O)[C@@H](NC(=O)CNC(=O)[C@H](CS)NC(=O)CNC(=O)[C@H](CCCNC(=N)N)NC(=O)[C@@H](N)CCCCN)[C@@H](C)O)C(=O)O)cc1` [Peptide (3)] (H-KRGCGTKFLSYKFSC(Mob)-OH), the pIC50 in assay [1] was 5.57.
Regarding `CC(C)C[C@@H]1NC(=O)[C@H](Cc2ccccc2)NC(=O)[C@H](CCCCN)NC(=O)[C@H]([C@@H](C)O)NC(=O)CNC(=O)[C@@H](NC(=O)CNC(=O)[C@H](CCCNC(=N)N)NC(=O)[C@@H](N)CCCCN)CSSC[C@@H](C(=O)O)NC(=O)[C@H](CO)NC(=O)[C@H](Cc2ccccc2)NC(=O)[C@H](CCCCN)NC(=O)[C@H](Cc2ccc(O)cc2)NC(=O)[C@H](CO)NC1=O` [Peptide (20)] (H-KRGCGTKFLSYKFSC-OH; disulfide 4-15 (inferred); N-terminus and C-terminus assumed), the “inhibitory activity to type II PLA₂ enzyme” value in assay [2] (in the presence of heparin) was “inhibitory activity”. In addition, the inhibition at 1 µg/mL in assay [2] (peptide 1 µg/ml, heparin 50 µg/ml, PLA₂ enzyme 200 ng/ml) was 10%. In addition, the remaining activity at 1 µg/mL in assay [2] (peptide 1 µg/ml, heparin 50 µg/ml, PLA₂ enzyme 200 ng/ml, read-out: PLA₂enzyme activity (%)) came to 90%. Also, in assay [2] (peptide 5 µg/ml, heparin 50 µg/ml, PLA₂ enzyme 200 ng/ml), the inhibition at 5 µg/mL was found to be 59%. The remaining activity at 5 µg/mL in assay [2] (peptide 5 µg/ml, heparin 50 µg/ml, PLA₂ enzyme 200 ng/ml, read-out: PLA₂enzyme activity (%)) came out at 41%. Moreover, the inhibition at 10 µg/mL in assay [2] (peptide 10 µg/ml, heparin 50 µg/ml, PLA₂ enzyme 200 ng/ml) was 72%. Also, the remaining activity at 10 µg/mL in assay [2] (peptide 10 µg/ml, heparin 50 µg/ml, PLA₂ enzyme 200 ng/ml, read-out: PLA₂enzyme activity (%)) amounted to 28%. Moreover, in assay [2] (peptide 50 µg/ml, heparin 50 µg/ml, PLA₂ enzyme 200 ng/ml), the inhibition at 50 µg/mL was 82%. The remaining activity at 50 µg/mL in assay [2] (peptide 50 µg/ml, heparin 50 µg/ml, PLA₂ enzyme 200 ng/ml, read-out: PLA₂enzyme activity (%)) was found to be 18%. Also, the inhibition at 100 µg/mL in assay [2] (peptide 100 µg/ml, heparin 50 µg/ml, PLA₂ enzyme 200 ng/ml) is 90%. Besides, the remaining activity at 100 µg/mL in assay [2] (peptide 100 µg/ml, heparin 50 µg/ml, PLA₂ enzyme 200 ng/ml, read-out: PLA₂enzyme activity (%)) was 10%. The “inhibitory activity to binding of human type II PLA₂ to heparin” value in assay [1] was “strong inhibitory activity”.
For `COc1ccc(CSC[C@H](NC(=O)CNC(=O)[C@H](CCCNC(=N)N)NC(=O)[C@@H](N)CCCCN)C(=O)NCC(=O)N[C@H](C(=O)N[C@@H](CCCCN)C(=O)N[C@@H](Cc2ccccc2)C(=O)N[C@@H](CC(C)C)C(=O)N[C@@H](CO)C(=O)N[C@@H](Cc2ccc(O)cc2)C(=O)N[C@@H](CCCCN)C(=O)N[C@@H](Cc2ccccc2)C(=O)N[C@@H](CO)C(=O)N[C@@H](CS)C(=O)O)[C@@H](C)O)cc1` [Peptide (6)] (H-KRGC(Mob)GTKFLSYKFSC-OH; N-terminus and C-terminus assumed), the “inhibitory activity to binding of human type II PLA₂ to heparin” value in assay [1] is listed as “strong inhibitory activity”.
